Measured values: ChEMBL document CHEMBL3352178, “Antidepressant- and anxiolytic-like activity of 7-phenylpiperazinylalkyl-1,3-dimethyl-purine-2,6-dione derivatives with diversified 5-HT₁A receptor functional profile” (Bioorg Med Chem, 2015)
pKi: −log10 of the molar value. Calls of active or inactive are those of the source. The rule behind the calls is not given here.

Tests used:
[1] = system: Mus musculus; assay: Anxiolytic-like activity in mouse assessed as increase in number of punished crossings at 1.25 to 5 mg/kg, ip dosed 60 mins before test by four plate test; format: functional, organism-based
[2] = system: Mus musculus; assay: Induction of hypothermia in mouse assessed as change in body temperature at 5 mg/kg, ip administered 30 mins before test and measured 30 mins post dose; format: functional, organism-based; design: dose 5 mg/kg
[3] = system: Rattus norvegicus; assay: Induction of lower lip retraction in rat assessed as lower lip retraction scores at 1 mg/kg, ip dosed 15 mins before test; format: functional; conditions: route intraperitoneal
[4] = target: T1, 5-hydroxytryptamine receptor 1A (Rattus norvegicus, UniProt P19327); assay: Displacement of [3H]-8-OH-DPAT from 5-HT1AR in rat hippocampus; format: tissue-based
T1 sequence (P19327 whole entry): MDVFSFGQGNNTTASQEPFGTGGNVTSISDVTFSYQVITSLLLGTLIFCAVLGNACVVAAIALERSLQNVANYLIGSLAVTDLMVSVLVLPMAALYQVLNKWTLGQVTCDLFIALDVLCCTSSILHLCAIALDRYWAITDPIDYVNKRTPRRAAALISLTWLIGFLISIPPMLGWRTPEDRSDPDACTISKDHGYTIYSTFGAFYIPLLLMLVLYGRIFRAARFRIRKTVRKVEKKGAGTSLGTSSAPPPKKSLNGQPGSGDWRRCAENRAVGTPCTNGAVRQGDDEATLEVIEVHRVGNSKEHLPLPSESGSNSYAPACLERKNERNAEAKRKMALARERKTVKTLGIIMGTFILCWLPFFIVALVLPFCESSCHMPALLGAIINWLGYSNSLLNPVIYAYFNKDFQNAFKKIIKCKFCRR

[5] = system: Mus musculus; assay: Induction of hypothermia in mouse assessed as change in body temperature at 5 mg/kg, ip administered 30 mins before test and measured 120 mins post dose; format: functional, organism-based; design: dose 5 mg/kg
[6] = system: Mus musculus; assay: Antidepressant-like activity in mouse assessed as reduction in immobility time at 0.156 to 5 mg/kg, ip dosed 60 mins before test by forced swim test; format: functional, organism-based
[7] = system: Mus musculus; assay: Inhibition of (+/-)-DOI-induced head twitch response in mouse assessed as head twitches per 20 mins at 2.5 mg/kg, ip dosed 60 mins before (+/-)-DOI injection (reference value: 21.6 +/- 3.4/20 mins); format: functional; conditions: route intraperitoneal
[8] = system: Mus musculus; assay: Induction of hypothermia in mouse assessed as change in body temperature at 2.5 mg/kg, ip administered 30 mins before test and measured 90 mins post dose; format: functional, organism-based; design: dose 2.5 mg/kg
[9] = target: 5-hydroxytryptamine receptor 7 (Homo sapiens, UniProt P34969); assay: Displacement of [3H]]-5-CT from human cloned 5-HT7R expressed in HEK293 cells; format: cell-based
Chain of 5-hydroxytryptamine receptor 7 (P34969 whole entry): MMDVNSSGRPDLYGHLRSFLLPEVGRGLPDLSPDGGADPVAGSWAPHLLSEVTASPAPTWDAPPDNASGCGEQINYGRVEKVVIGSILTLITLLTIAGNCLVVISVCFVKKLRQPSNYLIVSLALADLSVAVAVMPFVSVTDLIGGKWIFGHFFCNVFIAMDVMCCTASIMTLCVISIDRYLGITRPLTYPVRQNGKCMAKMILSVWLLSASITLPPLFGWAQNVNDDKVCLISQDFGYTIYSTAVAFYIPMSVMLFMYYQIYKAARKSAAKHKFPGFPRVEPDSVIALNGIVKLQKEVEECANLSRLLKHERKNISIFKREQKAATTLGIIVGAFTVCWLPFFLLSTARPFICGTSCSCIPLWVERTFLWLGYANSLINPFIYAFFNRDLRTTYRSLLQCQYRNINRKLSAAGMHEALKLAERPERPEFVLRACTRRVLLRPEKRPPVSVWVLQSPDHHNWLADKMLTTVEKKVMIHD

[10] = system: Mus musculus; assay: Inhibition of (+/-)-DOI-induced head twitch response in mouse assessed as head twitches per 20 mins at 10 mg/kg, ip dosed 60 mins before (+/-)-DOI injection (reference value: 21.6 +/- 3.4/20 mins); format: functional; conditions: route intraperitoneal
[11] = system: Mus musculus; assay: Induction of hypothermia in mouse assessed as change in body temperature at 5 mg/kg, ip administered 30 mins before test and measured 90 mins post dose; format: functional, organism-based; design: dose 5 mg/kg
[12] = target: 5-hydroxytryptamine receptor 2A (Rattus norvegicus, UniProt P14842); assay: Displacement of [3H]-ketanserin from 5-HT2AR in rat cortex
Chain of 5-hydroxytryptamine receptor 2A (P14842 whole entry): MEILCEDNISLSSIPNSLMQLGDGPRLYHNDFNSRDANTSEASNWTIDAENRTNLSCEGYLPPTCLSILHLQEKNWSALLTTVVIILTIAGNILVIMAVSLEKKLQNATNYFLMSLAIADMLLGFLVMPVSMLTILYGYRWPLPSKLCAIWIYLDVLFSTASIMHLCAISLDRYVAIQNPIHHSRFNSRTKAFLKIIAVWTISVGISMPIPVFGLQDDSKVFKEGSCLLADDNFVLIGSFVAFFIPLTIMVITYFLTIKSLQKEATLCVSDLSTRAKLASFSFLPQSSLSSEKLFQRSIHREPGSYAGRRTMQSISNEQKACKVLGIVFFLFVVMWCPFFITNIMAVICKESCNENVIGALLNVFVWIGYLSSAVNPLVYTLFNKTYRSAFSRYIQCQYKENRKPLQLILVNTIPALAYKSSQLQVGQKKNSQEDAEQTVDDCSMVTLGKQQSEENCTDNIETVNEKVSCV

[13] = system: Mus musculus; assay: Induction of hypothermia in mouse assessed as change in body temperature at 2.5 mg/kg, ip administered 30 mins before test and measured 60 mins post dose; format: functional, organism-based; design: dose 2.5 mg/kg
[14] = target: 5-hydroxytryptamine receptor 6 (Homo sapiens, UniProt P50406); assay: Displacement of [3H]LSD from human cloned 5-HT6R expressed in HEK293 cells; format: cell-based
Chain of 5-hydroxytryptamine receptor 6 (P50406 whole entry): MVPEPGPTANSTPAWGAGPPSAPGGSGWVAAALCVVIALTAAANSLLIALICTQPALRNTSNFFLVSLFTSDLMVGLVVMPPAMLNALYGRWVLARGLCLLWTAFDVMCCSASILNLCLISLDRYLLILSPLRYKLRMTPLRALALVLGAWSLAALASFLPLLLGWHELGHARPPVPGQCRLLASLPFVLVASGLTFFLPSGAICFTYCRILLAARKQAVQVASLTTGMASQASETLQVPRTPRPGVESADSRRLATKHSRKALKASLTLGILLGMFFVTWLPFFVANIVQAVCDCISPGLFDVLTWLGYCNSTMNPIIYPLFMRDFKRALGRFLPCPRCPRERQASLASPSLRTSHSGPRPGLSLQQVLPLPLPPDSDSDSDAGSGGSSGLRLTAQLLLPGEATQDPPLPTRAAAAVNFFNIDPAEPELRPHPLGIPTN

[15] = system: Mus musculus; assay: Anxiolytic-like activity in mouse assessed as increase in number of punished crossings at 0.312 mg/kg, ip dosed 60 mins before test by four plate test; format: functional; conditions: route intraperitoneal
[16] = system: Mus musculus; assay: Inhibition of (+/-)-DOI-induced head twitch response in mouse assessed as head twitches per 20 mins at 5 mg/kg, ip dosed 60 mins before (+/-)-DOI injection (reference value: 21.6 +/- 3.4/20 mins); format: functional; conditions: route intraperitoneal
[17] = system: Rattus norvegicus; assay: Induction of lower lip retraction in rat assessed as lower lip retraction scores at 10 mg/kg, ip dosed 15 mins before test; format: functional; conditions: route intraperitoneal
[18] = target: D(2) dopamine receptor (Rattus norvegicus, UniProt P61169); assay: Displacement of [3H]-spiperone from dopamine D2 receptor in rat striatum
Chain of D(2) dopamine receptor (P61169 whole entry): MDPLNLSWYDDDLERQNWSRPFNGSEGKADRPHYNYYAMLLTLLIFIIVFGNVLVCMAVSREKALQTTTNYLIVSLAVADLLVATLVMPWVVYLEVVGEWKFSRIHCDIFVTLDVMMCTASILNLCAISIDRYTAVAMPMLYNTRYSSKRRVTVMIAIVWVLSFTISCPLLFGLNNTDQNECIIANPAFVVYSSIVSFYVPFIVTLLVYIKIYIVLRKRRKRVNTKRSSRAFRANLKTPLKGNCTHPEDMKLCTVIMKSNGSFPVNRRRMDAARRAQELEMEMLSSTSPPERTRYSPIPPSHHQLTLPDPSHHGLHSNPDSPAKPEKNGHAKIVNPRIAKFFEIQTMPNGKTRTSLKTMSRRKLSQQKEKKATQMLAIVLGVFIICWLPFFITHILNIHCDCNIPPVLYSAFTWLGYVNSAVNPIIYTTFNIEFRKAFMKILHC

[19] = system: Mus musculus; assay: Anxiolytic-like activity in mouse assessed as increase in number of punished crossings at 0.625 mg/kg, ip dosed 60 mins before test by four plate test; format: functional; conditions: route intraperitoneal
[20] = system: Mus musculus; assay: Anxiolytic-like activity in mouse assessed as increase in number of punished crossings at 0.156 mg/kg, ip dosed 60 mins before test co-administered with 0.625 mg/kg diazepam by four plate test; format: functional, organism-based
[21] = system: Mus musculus; assay: Inhibition of (+/-)-DOI-induced head twitch response in mouse dosed intraperitoneally 60 mins before (+/-)-DOI injection; format: functional
[22] = system: Rattus norvegicus; assay: Inhibition of 8-OH-DPAT-induced lower lip retraction in rat assessed as lower lip retraction scores at 1 mg/kg, ip dosed 45 mins before 8-OH-DPAT; format: functional; conditions: route intraperitoneal
[23] = system: Mus musculus; assay: Effect on spontaneous locomotor activity in mouse at 0.625 mg/kg, ip; format: ADME, organism-based; design: dose 0.625 mg/kg, route intraperitoneal; conditions: in vivo
[24] = system: Rattus norvegicus; assay: Induction of lower lip retraction in rat assessed as lower lip retraction scores at 5 mg/kg, ip dosed 15 mins before test; format: functional; conditions: route intraperitoneal
[25] = system: Mus musculus; assay: Induction of hypothermia in mouse assessed as change in body temperature at 2.5 mg/kg, ip administered 30 mins before test and measured 120 mins post dose; format: functional, organism-based; design: dose 2.5 mg/kg
[26] = system: Mus musculus; assay: Induction of hypothermia in mouse assessed as change in body temperature at 2.5 mg/kg, ip administered 30 mins before test and measured 60 mins post dose in presence of 0.3 mg/kg, sc 5HT1A receptor antagonist WAY 100635; format: functional, organism-based
[27] = system: Mus musculus; assay: Inhibition of (+/-)-DOI-induced head twitch response in mouse assessed as head twitches per 20 mins at 1.25 mg/kg, ip dosed 60 mins before (+/-)-DOI injection (reference value: 21.6 +/- 3.4/20 mins); format: functional; conditions: route intraperitoneal
[28] = system: Mus musculus; assay: Induction of hypothermia in mouse assessed as change in body temperature at 5 mg/kg, ip administered 30 mins before test and measured 60 mins post dose; format: functional, organism-based; design: dose 5 mg/kg
[29] = system: Mus musculus; assay: Induction of hypothermia in mouse assessed as change in body temperature at 2.5 mg/kg, ip administered 30 mins before test and measured 30 mins post dose; format: functional, organism-based; design: dose 2.5 mg/kg
[30] = system: Rattus norvegicus; assay: Inhibition of 8-OH-DPAT-induced lower lip retraction in rat assessed as lower lip retraction scores at 5 mg/kg, ip dosed 45 mins before 8-OH-DPAT; format: functional; conditions: route intraperitoneal
[31] = system: Mus musculus; assay: Inhibition of (+/-)-DOI-induced head twitch response in mouse assessed as head twitches per 20 mins at 0.625 mg/kg, ip dosed 60 mins before (+/-)-DOI injection (reference value: 21.6 +/- 3.4/20 mins); format: functional; conditions: route intraperitoneal
[32] = system: Mus musculus; assay: Effect on spontaneous locomotor activity in mouse at 0.312 mg/kg, ip; format: ADME, organism-based; design: dose 0.312 mg/kg, route intraperitoneal; conditions: in vivo
[33] = system: Rattus norvegicus; assay: Inhibition of 8-OH-DPAT-induced lower lip retraction in rat assessed as lower lip retraction scores at 10 mg/kg, ip dosed 45 mins before 8-OH-DPAT; format: functional; conditions: route intraperitoneal
[34] = system: Mus musculus; assay: Induction of hypothermia in mouse assessed as change in body temperature at 2.5 mg/kg, ip administered 30 mins before test and measured 30 mins post dose in presence of 0.3 mg/kg, sc 5HT1A receptor antagonist WAY 100635; format: functional, organism-based
[35] = system: Mus musculus; assay: Antidepressant-like activity in mouse assessed as reduction in immobility time at 10 to 20 mg/kg, ip dosed 60 mins before test by forced swim test; format: functional, organism-based
[36] = system: Mus musculus; assay: Effect on spontaneous locomotor activity in ip dosed mouse during 2 to 6 mins; format: ADME, organism-based; conditions: in vivo

CN1C(=O)CN=C(c2ccccc2)c2cc(Cl)ccc21
Activity [1]: Active

Cl.Cn1c(=O)c2c(ncn2CCCCCN2CCN(c3cccc(Cl)c3)CC2)n(C)c1=O
deltaT [2]: -2.2 °C | Activity [3]: 0.2 | pKi [4]: 8.30 | deltaT [5]: 0.3 °C | Activity [6]: inactive | Activity [7]: 8.2 | deltaT [8]: -1.5 °C | pKi [9]: 6.88 | Activity [10]: 1.3 | deltaT [11]: -1.1 °C | pKi [12]: 7.27 | deltaT [13]: -1.8 °C | pKi [14]: 5.92 | Activity [15]: 71% | Activity [16]: 5.8 | Activity [17]: 0.1 | pKi [18]: 7.40 | Activity [19]: 57% | Activity [20]: Active | inhibition [21]: Dose-dependent effect | ED50 ([21]; ip, read-out: ID50 (the source's name)): 2.54 mg/kg | Activity [22]: 1.8 | Activity [23]: Non-toxic | Activity [24]: 0.3 | deltaT [25]: -1.3 °C | deltaT [26]: -2 °C | Activity [27]: 10.8 | deltaT [28]: -1.4 °C | deltaT [29]: -2.1 °C | Activity [30]: 1.1 | Activity [31]: 12.8 | Activity [32]: Non-toxic | Activity [33]: 0.5 | deltaT [34]: -1.8 °C

COc1ccccc1N1CCN(CCCCn2cnc3c2c(=O)n(C)c(=O)n3C)CC1
pKi [4]: 8.92 | pKi [9]: 6.36 | pKi [12]: 5.98 | pKi [14]: 5.71 | pKi [18]: 7.19

CN(C)CCCN1c2ccccc2CCc2ccccc21 [IMIPRAMINE]
Activity [35]: Active | Activity [36]: Non-toxic

COc1ccccc1N1CCN(CCCn2cnc3c2c(=O)n(C)c(=O)n3C)CC1
pKi [4]: 6.92 | pKi [9]: 5.66 | pKi [12]: 6.03 | pKi [14]: 4.92 | pKi [18]: 6.03

Cn1c(=O)c2c(nc(N3CCOCC3)n2CCCCN2CCN(c3cccc(Cl)c3)CC2)n(C)c1=O
pKi [4]: 7.66 | pKi [9]: 6.95 | pKi [12]: 7.68 | pKi [14]: 6.68

Cn1c(=O)c2c(ncn2CCCCN2CCN(c3cccc(Cl)c3Cl)CC2)n(C)c1=O
pKi [4]: 7.26 | pKi [9]: 7.14 | pKi [12]: 6.79 | pKi [14]: 7.17 | pKi [18]: 7.82

CCOc1nc2c(c(=O)n(C)c(=O)n2C)n1CCCCN1CCN(c2ccccc2OC)CC1
pKi [9]: 7.27
